Tested on: MV4-11 cells
Assay: Cell proliferation assay MV4;11 (CellTiter-Glo, 72 hours)
Format: cell-based
Details: Homo sapiens; MV4;11 leukemia cell line, 72 hours; read-out: MV4; 11 IC50
Procedure: Compounds were evaluated for its capacity to inhibit the proliferation of the MLLr leukemia cell line MV4-11 that harbors an MLL1-AF4 fusion protein. MV4-11 cells were cultured for 72 hours with limiting dilutions of compounds and viability was measured using CellTiter-Glo.
Compounds were dissolved to obtain as 10 mM solution in DMSO. The stock was diluted 1:5 to the top concentration of 2 mM in 100% DMSO. For IC50 determination, serial 1:3.16 dilutions were prepared in 100% DMSO by diluting 20 μL into 43.5 μL of DMSO for 8 concentrations. Each prepared DMSO solution were further diluted 1:500 in the cell culture media to obtain the 2× dosing solutions. The final concentrations of tested compounds in the cell culture media ranged from 0.632 nM to 2000 nM.
MV4-11 cells were cultured in IMDM with 10% FBS and 1× Penicillin-Streptomycin at 5% CO2 and 37° C. A cell suspension was prepared containing 15,000 cells/ml in the culture medium and 100 μL of this suspension was added per well to a 96-well cell culture plate. Then, 100 μL of 2× dosing media containing test compounds were added bringing the total volume to 200 μL. These cells were cultured for 72 hours at 37° C. and 5% CO2 in a humidified incubator.
After 72 hours, the cultured cells were mixed and 100p L was transferred to a 96-well black plate. Cell Titer Glo (100 μl) was then added to this plate. The plate was mixed with shaking for 15 mins at RT, the luminescence was then measured using Tecan Spark 20M spectrophotometer. Cell Viability (%) was determined by RLU of test/RLU average vehicle control*100 and % max inhibition was determined by 100−(% cell viability remaining at the top concentration of compound).

| SMILES | IC50 |
| --- | --- |
| CNS(=O)(=O)N[C@H]1CC[C@H](CN2CCC3(CC2)CN(c2ncncc2Oc2ccc(F)cc2C(=O)N(C(C)C)C2CC2)C3)OC1 (stereo in doubt) [Example 146, N-Cyclopropyl-5-fluoro-N-isopropyl-2-((4-(7-(((2R,5S)-5-((N-methylsulfamoyl)amino)tetrahydro-2H-pyran-2-yl)methyl)-2,7-diazaspiro[3.5]nonan-2-yl)pyrimidin-5-yl)oxy)benzamide] | < 100 nM |
| CCNS(=O)(=O)N[C@H]1CC[C@H](CN2CCC3(CC2)CN(c2ncnnc2Oc2ccc(F)cc2C(=O)N(CC(F)(F)F)C(C)C)C3)OC1 (stereo in doubt) [Example 193, 2-((5-(7-(((2R,5S)-5-((N-Ethylsulfamoyl)amino)tetrahydro-2H-pyran-2-yl)methyl)-2,7-diazaspiro[3.5]nonan-2-yl)-1,2,4-triazin-6-yl)oxy)-5-fluoro-N-isopropyl-N-(2,2,2-trifluoroethyl)benzamide] | < 100 nM |
| CC(C)N(CC(F)(F)F)C(=O)c1cc(F)ccc1Oc1nncnc1N1CC2(CCN(C[C@H]3CC[C@H](NS(=O)(=O)N4CCC4)CO3)CC2)C1 (stereo in doubt) [Example 194, 2-((5-(7-(((2R,5S)-5-(Azetidine-1-sulfonamido)tetrahydro-2H-pyran-2-yl)methyl)-2,7-diazaspiro[3.5]nonan-2-yl)-1,2,4-triazin-6-yl)oxy)-5-fluoro-N-isopropyl-N-(2,2,2-trifluoroethyl)benzamide] | < 100 nM |
| CCN(C(=O)c1cc(F)ccc1Oc1cncnc1N1CC2(CCN(C[C@@H]3CC[C@@H](NS(C)(=O)=O)CO3)CC2)C1)C(C)C [Example 1, N-Ethyl-5-fluoro-N-isopropyl-2-((4-(7-(((2S,5R)-5-(methylsulfonamido)tetrahydro-2H-pyran-2-yl)methyl)-2,7-diazaspiro[3.5]nonan-2-yl)pyrimidin-5-yl)oxy)benzamide] | < 100 nM |
| CCN(C(=O)c1cc(F)ccc1Oc1cncnc1N1CC2(CCN(C[C@@H]3CC[C@@H](NS(=O)(=O)CC)CO3)CC2)C1)C(C)C [Example 2, N-Ethyl-2-((4-(7-(((2S,5R)-5-(ethylsulfonamido)tetrahydro-2H-pyran-2-yl)methyl)-2,7-diazaspiro[3.5]nonan-2-yl)pyrimidin-5-yl)oxy)-5-fluoro-N-isopropylbenzamide] | < 100 nM |
| CCN(C(=O)c1cc(F)ccc1Oc1cncnc1N1CC2(CCN(C[C@@H]3CC[C@@H](NS(=O)(=O)C(C)C)CO3)CC2)C1)C(C)C [Example 3, N-Ethyl-5-fluoro-N-isopropyl-2-((4-(7-(((2S,5R)-5-((1-methylethyl)sulfonamido)tetrahydro-2H-pyran-2-yl)methyl)-2,7-diazaspiro[3.5]nonan-2-yl)pyrimidin-5-yl)oxy)benzamide] | < 100 nM |
| CCN(C(=O)c1cc(F)ccc1Oc1cncnc1N1CC2(CCN(C[C@@H]3CC[C@@H](NS(=O)(=O)C4CC4)CO3)CC2)C1)C(C)C [Example 4, 2-((4-(7-(((2S,5R)-5-(Cyclopropanesulfonamido)tetrahydro-2H-pyran-2-yl)methyl)-2,7-diazaspiro[3.5]nonan-2-yl)pyrimidin-5-yl)oxy)-N-ethyl-5-fluoro-N-isopropylbenzamide] | < 100 nM |
| CCN(C(=O)c1cc(F)ccc1Oc1cncnc1N1CC2(CCN(C[C@@H]3CC[C@@H](NS(=O)(=O)C4COC4)CO3)CC2)C1)C(C)C [Example 5, N-Ethyl-5-fluoro-N-isopropyl-2-((4-(7-(((2S,5R)-5-(oxetane-3-sulfonamido)tetrahydro-2H-pyran-2-yl)methyl)-2,7-diazaspiro[3.5]nonan-2-yl)pyrimidin-5-yl)oxy)benzamide] | < 100 nM |
| CCN(C(=O)c1cc(F)ccc1Oc1cncnc1N1CC2(CCN(C[C@@H]3CC[C@@H](NS(=O)(=O)C4CCC4)CO3)CC2)C1)C(C)C [Example 6, 2-((4-(7-(((2S,5R)-5-(Cyclobutanesulfonamido)tetrahydro-2H-pyran-2-yl)methyl)-2,7-diazaspiro[3.5]nonan-2-yl)pyrimidin-5-yl)oxy)-N-ethyl-5-fluoro-N-isopropylbenzamide] | < 100 nM |
| CCN(C(=O)c1cc(F)ccc1Oc1cncnc1N1CC2(CCN(C[C@@H]3CC[C@@H](NS(=O)(=O)CC4CC4)CO3)CC2)C1)C(C)C [Example 7, 2-((4-(7-(((2S,5R)-5-((Cyclopropylmethyl)sulfonamido)tetrahydro-2H-pyran-2-yl)methyl)-2,7-diazaspiro[3.5]nonan-2-yl)pyrimidin-5-yl)oxy)-N-ethyl-5-fluoro-N-isopropylbenzamide] | < 100 nM |
| CCN(C(=O)c1cc(F)ccc1Oc1cncnc1N1CC2(CCN(C[C@@H]3CC[C@@H](NS(=O)(=O)CCOC)CO3)CC2)C1)C(C)C [Example 8, N-Ethyl-5-fluoro-N-isopropyl-2-((4-(7-(((2S,5R)-5-((2-methoxyethyl)sulfonamido)tetrahydro-2H-pyran-2-yl)methyl)-2,7-diazaspiro[3.5]nonan-2-yl)pyrimidin-5-yl)oxy)benzamide] | < 100 nM |
| CCCS(=O)(=O)N[C@@H]1CC[C@@H](CN2CCC3(CC2)CN(c2ncncc2Oc2ccc(F)cc2C(=O)N(CC)C(C)C)C3)OC1 [Example 9, N-Ethyl-5-fluoro-N-isopropyl-2-((4-(7-(((2S,5R)-5-(propylsulfonamido)tetrahydro-2H-pyran-2-yl)methyl)-2,7-diazaspiro[3.5]nonan-2-yl)pyrimidin-5-yl)oxy)benzamide] | < 100 nM |
| CCN(C(=O)c1cc(F)ccc1Oc1cncnc1N1CC2(CCN(C[C@@H]3CC[C@@H](NC(=O)OC(C)(C)C)CO3)CC2)C1)C(C)C [Example 11, tert-Butyl ((3R,6S)-6-((2-(5-(2-(ethyl(isopropyl)carbamoyl)-4-fluorophenoxy)pyrimidin-4-yl)-2,7-diazaspiro[3.5]nonan-7-yl)methyl)tetrahydro-2H-pyran-3-yl)carbamate] | < 100 nM |
| CC(C)N(C(=O)c1cc(F)ccc1Oc1cncnc1N1CC2(CCN(C[C@@H]3CC[C@@H](NS(C)(=O)=O)CO3)CC2)C1)C(C)C [Example 12, 5-Fluoro-N,N-diisopropyl-2-((4-(7-(((2S,5R)-5-(methylsulfonamido)tetrahydro-2H-pyran-2-yl)methyl)-2,7-diazaspiro[3.5]nonan-2-yl)pyrimidin-5-yl)oxy)benzamide] | < 100 nM |
| CCS(=O)(=O)N[C@@H]1CC[C@@H](CN2CCC3(CC2)CN(c2ncncc2Oc2ccc(F)cc2C(=O)N(C(C)C)C(C)C)C3)OC1 [Example 13, 2-((4-(7-(((2S,5R)-5-(Ethylsulfonamido)tetrahydro-2H-pyran-2-yl)methyl)-2,7-diazaspiro[3.5]nonan-2-yl)pyrimidin-5-yl)oxy)-5-fluoro-N,N-diisopropylbenzamide] | < 100 nM |
| CC(C)N(C(=O)c1cc(F)ccc1Oc1cncnc1N1CC2(CCN(C[C@@H]3CC[C@@H](NS(=O)(=O)C(C)C)CO3)CC2)C1)C(C)C [Example 14, 5-Fluoro-N,N-diisopropyl-2-((4-(7-(((2S,5R)-5-((1-methylethyl)sulfonamido)tetrahydro-2H-pyran-2-yl)methyl)-2,7-diazaspiro[3.5]nonan-2-yl)pyrimidin-5-yl)oxy)benzamide] | < 100 nM |
| CC(C)N(C(=O)c1cc(F)ccc1Oc1cncnc1N1CC2(CCN(C[C@@H]3CC[C@@H](NS(=O)(=O)C4CC4)CO3)CC2)C1)C(C)C [Example 15, 2-((4-(7-(((2S,5R)-5-(Cyclopropanesulfonamido)tetrahydro-2H-pyran-2-yl)methyl)-2,7-diazaspiro[3.5]nonan-2-yl)pyrimidin-5-yl)oxy)-5-fluoro-N,N-diisopropylbenzamide] | < 100 nM |
| CC(C)N(C(=O)c1cc(F)ccc1Oc1cncnc1N1CC2(CCN(C[C@@H]3CC[C@@H](NS(=O)(=O)C4COC4)CO3)CC2)C1)C(C)C [Example 16, 5-Fluoro-N,N-diisopropyl-2-((4-(7-(((2S,5R)-5-(oxetane-3-sulfonamido)tetrahydro-2H-pyran-2-yl)methyl)-2,7-diazaspiro[3.5]nonan-2-yl)pyrimidin-5-yl)oxy)benzamide] | < 100 nM |
| CC(C)N(C(=O)c1cc(F)ccc1Oc1cncnc1N1CC2(CCN(C[C@@H]3CC[C@@H](NC(=O)OC(C)(C)C)CO3)CC2)C1)C1CC1 [Example 17, tert-Butyl ((3R,6S)-6-((2-(5-(2-(cyclopropyl(isopropyl)carbamoyl)-4-fluorophenoxy)pyrimidin-4-yl)-2,7-diazaspiro[3.5]nonan-7-yl)methyl)tetrahydro-2H-pyran-3-yl)carbamate] | < 100 nM |
| CCS(=O)(=O)N[C@@H]1CC[C@@H](CN2CCC3(CC2)CN(c2ncncc2Oc2ccc(F)cc2C(=O)N(C(C)C)C2CC2)C3)OC1 [Example 19, N-Cyclopropyl-2-((4-(7-(((2S,5R)-5-(ethylsulfonamido)tetrahydro-2H-pyran-2-yl)methyl)-2,7-diazaspiro[3.5]nonan-2-yl)pyrimidin-5-yl)oxy)-5-fluoro-N-isopropylbenzamide] | < 100 nM |
| CC(C)N(C(=O)c1cc(F)ccc1Oc1cncnc1N1CC2(CCN(C[C@@H]3CC[C@@H](NS(=O)(=O)C(C)C)CO3)CC2)C1)C1CC1 [Example 20, N-Cyclopropyl-5-fluoro-N-isopropyl-2-((4-(7-(((2S,5R)-5-((1-methylethyl)sulfonamido)tetrahydro-2H-pyran-2-yl)methyl)-2,7-diazaspiro[3.5]nonan-2-yl)pyrimidin-5-yl)oxy)benzamide] | < 100 nM |
